Data from patent US11779649B2, “Antibodies to PMEL17 and conjugates thereof” (Novartis AG, priority 2018, dated 2023).
Substitutions are numbered along the chain they refer to. Numbers in names are those of the source. Read-outs that look alike come from different tables or passages of the source. Starred links: 1 amine or outer side, 2 acyl side, 3 side chain; linkers in the order of their positions; H or OH if unused. Positions of bridges follow the written chain, without caps; N, C: chain ends. Non-standard residues stand in square brackets, D forms with d. Residues, ends and D or L forms follow the SMILES beside them. *: point of attachment. Leu(3R-OH,Nα-propionyl) = CCC(=O)N[C@H](C(=O)*)[C@H](O)C(C)C; X1 = CC(C)[C@@H](O[*:3])[C@H](N[*:1])C(=O)[*:2]; NMeT = CN[C@H](C(=O)O)[C@@H](C)O; dPhLac = O=C(O)[C@H](O)Cc1ccccc1; NMeA = CN[C@@H](C)C(=O)O; NMeDha = C=C(NC)C(=O)O

How the values were obtained:
[1] = system: 92.1 uveal melanoma; test: Resazurin-based viability assay, 92.1 uveal melanoma cells; type: cell-based
Procedure: (§1) Following drug treatment for 96 or 120 hours, cell viability and proliferation were determined using a resazurin-based viability assay. Briefly, cells were incubated with a resazurin-based solution and color change was detected by absorbance with a spectrophotometer and used as a readout of cell viability. Data presented as mean of 3 independent replicates and relative to PBS-treated cells (control).
as §1, with “(control) (FIG. 6).” for “(control).”
Following drug treatment for 96 or 120 hours, cell viability and proliferation were determined using a resazurin-based viability assay. Data presented as mean of 3 independent replicates and relative to PBS-treated cells (control) (FIG. 8).
as §1

[2] = system: MIAPACA pancreatic ductal adenocarcinoma cells; test: Resazurin-based viability assay, MIAPACA cells; type: cell-based; details: Homo sapiens, MIA PaCa-2, WT, 96 or 120 hours, Table 4
Procedure: as §1, with “92.1 uveal melanoma and MIAPACA pancreatic ductal adenocarcinoma cells were seeded at low cell density in 96-well plates and treated with increasing concentrations of Compound (A1) or Compound (A2) as indicated. Following” for “Following”

[3] = system: 92.1 cells; test: Annexin V flow cytometry apoptosis assay, 92.1 cells; type: cell-based; details: 92.1 and MIAPACA cells, FIG. 2
Procedure: (§2) 92.1 and MIAPACA cells were seeded in 96-well plates (5000 cells per well) and treated with increasing concentrations of Compound (A1), Compound (A2), and a fixed dose of Staurosporine (100 nM, positive control) as indicated. Following drug treatment for 96, cells were subjected to fluorescence-activated flow cytometry using an Annexin V antibody conjugated to a fluorescent dye. Data presented as mean of 3 independent replicates.
as §2, with “92.1” for “92.1 and MIAPACA”, “3207-(B1) (Isotype control), G4-(B1),” for “Compound (A2),”, “G1-(B1)” for “a fixed dose of Staurosporine (100 nM, positive control)”

[4] = system: GNAQ/11; test: IP1 levels by TR-FRET in 92.1 uveal melanoma cells; type: cell-based; details: 92.1 cells, overnight treatment, FIG. 3A
Procedure: (§3) 92.1 uveal melanoma were treated with increasing concentrations of Compound (A1) or Compound (A2) as indicated. Following drug treatment overnight, cells were processed for determination of IP1 levels using TR-FRET (time-resolved fluorescent resonance energy transfer) or protein levels by western-blotting.
92.1 uveal melanoma were treated with DMSO, Compound (A1) (8 nM) and increasing concentrations of Isotype-(B1), anti-PMEL17-(B1) and anti-PMEL17-(B2) ADCs as indicated. Following drug treatment for 2 days, cells were processed for determination of IP1 levels using TR-FRET (time-resolved fluorescent resonance energy transfer). IP1 levels (nM) are presented as mean of 3 independent replicates.

[5] = system: ERK signaling; test: Western-blotting of 92.1 cells, ERK signaling; type: cell-based; details: FIG. 3C
Procedure: as §3

[6] = Plasma stability of Compound (A1) in mouse, rat, monkey and human plasma compared to buffer; type: in vitro ADME; details: over 24 h, FIG. 4A-4B
Procedure: The plasma stability of Compound (A1) was investigated in mouse, rat, monkey and human plasma and compared to buffer. Both disappearance of Compound (A1) (FIG. 4A) as well as appearance of the ring-opened form of Compound (A1) having the structure of Compound (A4)
[drawing 153] (FIG. 4B) were monitored over 24 h.

[7] = PK of Compound (A1) after intravenous dosing in mouse; type: in vivo; details: for Vd: read-out: Vss
Text: Table 5 summarizing all PK values is shown below.

[8] = Stability in buffer at pH 5.6 and in lysosomes; type: in vitro ADME; details: buffer pH 5.6, lysosomes, 4 h, FIG. 5D
Procedure: In vitro stability of Compound (A2) was tested in plasma and blood from different species (FIG. 5A). […]

[9] = system: Human Platelet Rich Plasma (PRP); details: human PRP, 0.1, 1 and 150 nM, 4, 16 or 24 h, TRAP6 32 uM, FIG. 11
Procedure: Platelet aggregation was then measured following treatment with Thrombin Receptor Activating Peptide 6 (TRAP6) at 32 uM.

[10] = system: 92.1-luciferase subcutaneous xenografts; test: 92.1-luciferase subcutaneous xenograft tumor growth in female nude mice; type: in vivo
Procedure: Treatment (single dose i.v. injection) was performed 17 days post tumor inoculation. Values are mean±SEM; sample size, (n=5-12 mice per group). Initial tumor volume at day 0 was approximately 200-250 mm^3.
Treatments (single dose i.v. injection) were performed 17 days post tumor inoculation. Values represent mean±SEM; sample size, (n=5-6 mice per group). Initial tumor volume at day 0 was approximately 300-325 mm^3. (FIG. 16).
Treatment (single dose i.v. injection) was performed 14-17 days post tumor inoculation. Values are mean±SEM; sample size, (n=5-12 mice per group). Initial tumor volume at day 0 was approximately 200-250 mm3.

[11] = Exposure of ADC formats in an in vivo efficacy study and payload ring-opening on the antibody; design: species or system mice; details: formats of G1-(B1), in vivo efficacy study, FIG. 14D
Text: [drawing 156] (filled circles) while being conjugated to the antibody was shown in vivo in mice (FIG. 14C). […] From comparing the PK of the non-targeted 3207-ADCs (FIG. 14E) one can deduce that the Fc-silencing has a significant effect on lowering the clearance of the DAR4 format.

Molecule: C=C1C(=O)N[C@@H](C)C(=O)N(C)[C@@H](C)C(=O)N[C@@H]([C@H](OC(=O)[C@@H](NC(=O)CC)[C@H](O)C(C)C)C(C)C)C(=O)N(C)[C@@H]([C@@H](C)OC)C(=O)O[C@H](C(C)C)[C@H](NC(C)=O)C(=O)O[C@H](Cc2ccccc2)C(=O)N1C [Compound (A1), (R)-1-((3S,6S,9S,12S,18R,21S,22R)-21-acetamido-18-benzyl-22-isopropyl-3-((R)-1-methoxyethyl)-4,9,10,12,16-pentamethyl-15-methylene-2,5,8,11,14,17,20-heptaoxo-1,19-dioxa-4,7,10,13,16-pentaazacyclodocosan-6-yl)-2-methylpropyl (2S,3R)-3-hydroxy-4-methyl-2-propionamidopentanoate] (Ac-[X1][dPhLac][NMeDha]A[NMeA][X1](Leu(3R-OH,Nα-propionyl))[NMeT](Me); ester 1-C)
- GI50 ([1]; 92.1, GNAQ^Q209L, 96 or 120 hours, Table 4, read-out: GI50): 0.18 nM
- GI50 ([1]; 92.1 GNAQ^Q209L, Table 1, read-out: GI50 (nM) 92.1GNAQ^Q209L): 0.467 nM
- anti-UM activity ([1]; 92.1 vs MIAPACA, FIG. 1): potent target-dependent anti-UM activity
- GI50 [2]: > 10 µM
- apoptosis (Annexin V) [3]: induced apoptosis in UM cells in GNAQ/11 dependent manner
- IP1 levels [4]: reduced IP1 levels
- ERK signaling (immunoblots) [5]: reduced ERK signaling
- transformation of Compound (A1) to ring-opened form in plasma [6]: slightly faster in human plasma
- AUCinf/D (nM*h/(mg/kg)) ([7]; 0.2 mg/kg): 82 nM*h/(mg/kg)
- C0/D (nM/(mg/kg)) ([7]; 0.2 mg/kg): 217 nM/(mg/kg)
- Cmax/D (nM/(mg/kg)) ([7]; 0.2 mg/kg): 156 nM/(mg/kg)
- AUCinf/D (nM*h/(mg/kg)) ([7]; 0.4 mg/kg): 118 nM*h/(mg/kg)
- C0/D (nM/(mg/kg)) ([7]; 0.4 mg/kg): 270 nM/(mg/kg)
- Cmax/D (nM/(mg/kg)) ([7]; 0.4 mg/kg): 208 nM/(mg/kg)
- AUCinf/D (nM*h/(mg/kg)) ([7]; 0.8 mg/kg): 171 nM*h/(mg/kg)
- C0/D (nM/(mg/kg)) ([7]; 0.8 mg/kg): 475 nM/(mg/kg)
- Cmax/D (nM/(mg/kg)) ([7]; 0.8 mg/kg): 300 nM/(mg/kg)
- exposure with dose ([7]; 0.2-0.8 mg/kg): slightly over-proportional increase of exposure with dose
- clearance ([7]; FIG. 4D): very high clearance
- volume of distribution ([7]; FIG. 4D): moderate to high volume of distribution
- AUC(0-inf) ([7]; in vivo, 0.2 mg/kg): 0.016 µM·h
- C0 ([7]; in vivo, 0.2 mg/kg): 43 nM
- Cmax ([7]; in vivo, 0.2 mg/kg): 31 nM
- clearance ([7]; in vivo, 0.2 mg/kg, read-out: CL): 204 mL/min/kg
- Vd ([7]; in vivo, 0.2 mg/kg): 8.6 L/kg
- AUC(0-inf) ([7]; in vivo, 0.4 mg/kg): 0.047 µM·h
- C0 ([7]; in vivo, 0.4 mg/kg): 108 nM
- Cmax ([7]; in vivo, 0.4 mg/kg): 83 nM
- clearance ([7]; in vivo, 0.4 mg/kg, read-out: CL): 141 mL/min/kg
- Vd ([7]; in vivo, 0.4 mg/kg): 4.9 L/kg
- AUC(0-inf) ([7]; in vivo, 0.8 mg/kg): 0.137 µM·h
- C0 ([7]; in vivo, 0.8 mg/kg): 380 nM
- Cmax ([7]; in vivo, 0.8 mg/kg): 240 nM
- clearance ([7]; in vivo, 0.8 mg/kg, read-out: CL): 97 mL/min/kg
- Vd ([7]; in vivo, 0.8 mg/kg): 4.6 L/kg
- stability in buffer and lysosomes [8]: stable in buffer at pH 5.6 and in lysosomes over 4 h
- platelet aggregation after TRAP6 [9]: induced platelet aggregation

B1: G1-E152C-DAR2-(B1) (conjugate)
heavy: QVQLVQSGAEVKKPGSSVKVSCKASGGTFSDYAITWVRQAPGQGLEWMGGIIPIFGTANYAQKFQGRVTITADESTSTAYMELSSLRSEDTAVYYCAREGGLLTDISYSRYWFAYWGQGTLVTVSS
light: DIELTQPPSVSVSPGQTASITCSGDALRDKFVYWYQQKPGQAPVLVIYDDNNRPSGIPERFSGSNSGNTATLTISGTQAEDEADYYCQSWDHSYSLVVFGGGTKLTVLGQPKAAPSVTLFPPSSEELQANKATLVCLISDFYPGAVTVAWKADSSPVKAGVETTTPSKQSNNKYAASSYLSLTPEQWKSHRSYSCQVTHEGSTVEKTVAPTECS
modifications: left off: a dimerising Fc or GST
- GI50 ([1]; 92.1, Table 10, read-out: GI50): 0.365 nM
- antitumor activity ([10]; 7.5 mg/kg single dose i.v., FIG. 16): comparable antitumor activity
- clearance / exposure of ADC formats [11]: lowest clearance

B2: Fc Silent G1-3J-DAR2 (E152C)-(B1) (conjugate)
heavy: B1 heavy
light: B1 light with D1S, I2Y, P8L, S13A, P14L, S19R, G76R, T77A, E80G
modifications: left off: a dimerising Fc or GST
- GI50 ([1]; 92.1, Table 10, read-out: GI50): 0.278 nM
- tumor growth ([10]; single i.v. injection, FIG. 18): inhibited tumor growth in a dose-dependent manner
